Laboratory results published in ChEMBL document CHEMBL5257081, “Discovery of novel PROTACs based on multi-targeted angiogenesis inhibitors” (Bioorg Med Chem Lett, 2023).
Blank lines part the entries; values can stand above or below the compound they belong to. Active and inactive are the calls of the source. The rule behind the calls is not given here.

Columns and labels:
[1] = target: T1, von Hippel-Lindau disease tumor suppressor/Serine/threonine-protein kinase B-raf (Homo sapiens) (UniProt P15056+P40337); assay: Protac activity at E3 ubiquitin ligase/BRAF in human EA.hy 926 cells assessed as degradation of BRAF protein at 40 uM incubated for 48 hrs by western blot assay; type: cell-based
T1 sequence (P15056 whole entry, looked up): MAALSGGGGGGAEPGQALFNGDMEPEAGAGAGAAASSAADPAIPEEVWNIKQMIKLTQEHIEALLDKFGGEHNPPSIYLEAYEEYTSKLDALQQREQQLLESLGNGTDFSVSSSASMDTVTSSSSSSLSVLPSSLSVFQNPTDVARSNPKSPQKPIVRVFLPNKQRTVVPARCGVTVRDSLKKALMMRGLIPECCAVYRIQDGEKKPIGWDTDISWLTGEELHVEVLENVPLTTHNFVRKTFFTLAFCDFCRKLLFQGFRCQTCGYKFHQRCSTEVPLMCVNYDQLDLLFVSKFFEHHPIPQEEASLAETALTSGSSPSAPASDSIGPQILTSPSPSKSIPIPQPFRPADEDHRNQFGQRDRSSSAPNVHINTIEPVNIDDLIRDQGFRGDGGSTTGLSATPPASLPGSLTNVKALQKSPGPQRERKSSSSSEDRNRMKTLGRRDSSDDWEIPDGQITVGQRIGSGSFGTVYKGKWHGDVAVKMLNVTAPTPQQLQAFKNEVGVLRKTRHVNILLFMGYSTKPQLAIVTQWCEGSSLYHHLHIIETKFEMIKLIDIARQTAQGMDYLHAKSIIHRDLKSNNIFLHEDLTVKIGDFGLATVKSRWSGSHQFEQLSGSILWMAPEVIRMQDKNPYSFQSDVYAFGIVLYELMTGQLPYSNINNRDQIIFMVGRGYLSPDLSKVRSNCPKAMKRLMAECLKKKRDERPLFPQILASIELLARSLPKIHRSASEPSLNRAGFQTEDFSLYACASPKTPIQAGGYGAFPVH
T1 sequence (P40337 whole entry, looked up): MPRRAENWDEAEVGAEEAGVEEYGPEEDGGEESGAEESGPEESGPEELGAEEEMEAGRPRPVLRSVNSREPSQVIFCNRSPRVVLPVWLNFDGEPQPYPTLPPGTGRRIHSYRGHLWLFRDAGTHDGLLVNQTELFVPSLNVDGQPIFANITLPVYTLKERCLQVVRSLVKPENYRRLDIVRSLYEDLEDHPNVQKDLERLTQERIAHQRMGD

[2] = Antiproliferative activity against human EA.hy 926 cells assessed as inhibition of cell growth; type: toxicity, cell-based
[3] = test system: A549; assay: Antiproliferative activity against human A549 cells assessed as inhibition of cell growth; type: functional, cell-based
[4] = target: T2, von Hippel-Lindau disease tumor suppressor/Vascular endothelial growth factor receptor 2 (Homo sapiens, UniProt P35968+P40337); assay: Protac activity at VHL E3 ubiquitin ligase/VEGFR-2 in human EA.hy 926 cells assessed as degradation of VEGFR-2 protein at 10 to 60 uM incubated for 48 hrs by western blot assay; type: cell-based; conditions: dose 10-60 µM
Target sequence in this assay (P35968 20-1356 limits assumed): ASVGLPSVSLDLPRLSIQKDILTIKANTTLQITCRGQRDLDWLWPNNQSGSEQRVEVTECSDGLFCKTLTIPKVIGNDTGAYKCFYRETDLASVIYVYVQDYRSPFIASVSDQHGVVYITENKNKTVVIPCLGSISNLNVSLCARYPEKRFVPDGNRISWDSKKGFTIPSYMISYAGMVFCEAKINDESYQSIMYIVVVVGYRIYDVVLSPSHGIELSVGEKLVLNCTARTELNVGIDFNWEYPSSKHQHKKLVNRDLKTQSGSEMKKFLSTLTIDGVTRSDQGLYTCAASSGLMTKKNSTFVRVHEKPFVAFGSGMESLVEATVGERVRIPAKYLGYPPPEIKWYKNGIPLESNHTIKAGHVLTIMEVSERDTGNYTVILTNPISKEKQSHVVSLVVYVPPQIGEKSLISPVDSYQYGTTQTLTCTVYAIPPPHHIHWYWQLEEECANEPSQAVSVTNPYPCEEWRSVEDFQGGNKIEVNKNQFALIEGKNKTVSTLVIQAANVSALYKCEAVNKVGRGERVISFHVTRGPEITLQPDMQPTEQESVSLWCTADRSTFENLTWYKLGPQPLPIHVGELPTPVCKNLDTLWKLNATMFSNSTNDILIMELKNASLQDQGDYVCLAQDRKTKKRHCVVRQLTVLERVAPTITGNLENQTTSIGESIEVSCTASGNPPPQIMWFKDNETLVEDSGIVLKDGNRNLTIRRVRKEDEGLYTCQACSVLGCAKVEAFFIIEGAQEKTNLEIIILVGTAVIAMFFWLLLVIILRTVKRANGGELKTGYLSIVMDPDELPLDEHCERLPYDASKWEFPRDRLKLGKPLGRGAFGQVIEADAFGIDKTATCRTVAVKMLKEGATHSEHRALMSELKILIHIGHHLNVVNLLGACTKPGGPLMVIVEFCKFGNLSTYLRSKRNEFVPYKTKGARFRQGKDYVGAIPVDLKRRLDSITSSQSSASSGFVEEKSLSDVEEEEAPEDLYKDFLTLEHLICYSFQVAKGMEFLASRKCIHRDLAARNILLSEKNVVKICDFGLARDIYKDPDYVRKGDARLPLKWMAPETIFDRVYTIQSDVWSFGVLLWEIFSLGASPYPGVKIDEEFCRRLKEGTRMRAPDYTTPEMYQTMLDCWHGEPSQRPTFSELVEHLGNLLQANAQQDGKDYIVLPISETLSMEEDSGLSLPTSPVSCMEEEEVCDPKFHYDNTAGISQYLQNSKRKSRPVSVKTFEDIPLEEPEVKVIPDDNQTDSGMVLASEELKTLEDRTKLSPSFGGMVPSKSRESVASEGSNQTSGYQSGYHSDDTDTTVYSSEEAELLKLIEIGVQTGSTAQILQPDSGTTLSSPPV
Target sequence in this assay (P40337 whole entry partner): as the sequence (P40337 whole entry, looked up) above

[5] = test system: MDA-MB-453; assay: Antiproliferative activity against human MDA-MB-453 cells assessed as inhibition of cell growth; type: functional, cell-based
[6] = test system: EA.hy 926; assay: Induction of cell cycle arrest in human EA.hy 926 cells at 0.1 to 40 uM incubated for 48 hrs by propidium-iodide staining based flow cytometry analysis; type: functional; conditions: dose 0.1-40 µM
[7] = target: T2, von Hippel-Lindau disease tumor suppressor/Vascular endothelial growth factor receptor 2; assay: Protac activity at VHL E3 ubiquitin ligase/VEGFR-2 (unknown origin) assessed as […] by ADP-Glo Kinase assay
Target sequence in this assay (P35968 whole entry): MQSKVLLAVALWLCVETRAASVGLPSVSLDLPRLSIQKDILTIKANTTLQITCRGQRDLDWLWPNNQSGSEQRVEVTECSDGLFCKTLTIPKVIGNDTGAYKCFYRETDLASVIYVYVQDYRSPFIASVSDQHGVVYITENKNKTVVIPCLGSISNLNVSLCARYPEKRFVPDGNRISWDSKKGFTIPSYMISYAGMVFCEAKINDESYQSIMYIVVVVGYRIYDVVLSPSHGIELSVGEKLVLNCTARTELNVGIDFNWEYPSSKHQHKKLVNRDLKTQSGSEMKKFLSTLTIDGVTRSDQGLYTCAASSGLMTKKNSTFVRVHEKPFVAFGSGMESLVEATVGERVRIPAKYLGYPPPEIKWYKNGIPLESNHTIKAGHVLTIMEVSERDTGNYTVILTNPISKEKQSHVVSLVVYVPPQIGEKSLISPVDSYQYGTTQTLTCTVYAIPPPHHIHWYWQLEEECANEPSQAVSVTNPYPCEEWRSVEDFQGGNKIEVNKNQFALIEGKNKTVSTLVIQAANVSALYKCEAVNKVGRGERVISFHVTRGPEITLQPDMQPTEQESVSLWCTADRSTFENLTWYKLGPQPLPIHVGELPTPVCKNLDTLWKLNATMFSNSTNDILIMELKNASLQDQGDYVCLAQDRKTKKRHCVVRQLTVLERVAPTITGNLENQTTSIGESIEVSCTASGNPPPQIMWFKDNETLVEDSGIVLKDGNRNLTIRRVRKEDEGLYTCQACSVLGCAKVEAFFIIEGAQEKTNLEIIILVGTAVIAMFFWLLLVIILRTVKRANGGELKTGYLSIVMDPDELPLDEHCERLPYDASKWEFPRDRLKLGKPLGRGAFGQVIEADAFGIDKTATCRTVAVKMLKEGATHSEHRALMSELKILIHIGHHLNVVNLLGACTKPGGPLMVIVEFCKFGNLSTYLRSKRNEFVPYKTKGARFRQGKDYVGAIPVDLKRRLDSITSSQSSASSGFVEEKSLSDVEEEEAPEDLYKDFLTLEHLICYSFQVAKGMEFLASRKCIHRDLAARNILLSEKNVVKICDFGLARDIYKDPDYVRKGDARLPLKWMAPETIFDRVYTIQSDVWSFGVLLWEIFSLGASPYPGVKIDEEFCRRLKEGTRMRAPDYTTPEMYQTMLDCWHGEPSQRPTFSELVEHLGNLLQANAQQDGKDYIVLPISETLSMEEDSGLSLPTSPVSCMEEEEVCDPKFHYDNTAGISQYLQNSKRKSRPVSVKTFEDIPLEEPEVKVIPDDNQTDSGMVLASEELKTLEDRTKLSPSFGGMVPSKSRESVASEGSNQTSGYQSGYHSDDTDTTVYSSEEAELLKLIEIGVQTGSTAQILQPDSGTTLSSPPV
Target sequence in this assay (P40337 whole entry): as the sequence (P40337 whole entry, looked up) above

[8] = target: T1, von Hippel-Lindau disease tumor suppressor/Serine/threonine-protein kinase B-raf (Homo sapiens); assay: Protac activity at E3 ubiquitin ligase/BRAF in human EA.hy 926 cells assessed as degradation of BRAF protein at 40 uM incubated for 4 to 48 hrs by western blot assay; type: cell-based; conditions: time 4-48 hrs, TDE = time-dependent effect
[9] = target: T1, von Hippel-Lindau disease tumor suppressor/Serine/threonine-protein kinase B-raf (Homo sapiens); assay: Protac activity at E3 ubiquitin ligase/BRAF in human EA.hy 926 cells assessed as degradation of BRAF protein at 10 to 60 uM incubated for 48 hrs by western blot assay; type: cell-based; conditions: dose 10-60 µM
[10] = target: T1, von Hippel-Lindau disease tumor suppressor/Serine/threonine-protein kinase B-raf (Homo sapiens); assay: Protac activity at E3 ubiquitin ligase/BRAF in human EA.hy 926 cells assessed as degradation of BRAF protein at 40 uM incubated for 4 hrs by western blot assay; type: cell-based
[11] = test system: HEK293; assay: Cytotoxicity against human HEK293 cells assessed as inhibition of cell growth; type: toxicity, cell-based
[12] = test system: EA.hy 926; assay: Induction of apoptosis in human EA.hy 926 cells at 0.1 to 40 uM incubated for 72 hrs by annexin-V/PI staining based flow cytometry analysis; type: functional, cell-based; conditions: dose 0.1-40 µM
[13] = test system: EA.hy 926; assay: Induction of cell cycle arrest in human EA.hy 926 cells assessed as accumulation of cells at S pahse at 0.1 to 40 uM incubated for 48 hrs by propidium-iodide staining based flow cytometry analysis; type: functional; conditions: dose 0.1-40 µM
[14] = test system: EA.hy 926; assay: Induction of apoptosis in human EA.hy 926 cells assessed as viable cells at 10 uM incubated for 72 hrs by annexin-V/PI staining based flow cytometry analysis (reference value: 93.8%); type: functional; conditions: read-out: Activity
[15] = test system: EA.hy 926; assay: Induction of apoptosis in human EA.hy 926 cells assessed as viable cells at 40 uM incubated for 72 hrs by annexin-V/PI staining based flow cytometry analysis (reference value: 93.8%); type: functional; conditions: read-out: Activity
[16] = test system: EA.hy 926; assay: Induction of apoptosis in human EA.hy 926 cells assessed as late apoptotic cells at 40 uM incubated for 72 hrs by annexin-V/PI staining based flow cytometry analysis (reference value: 3.07%); type: functional
[17] = test system: EA.hy 926; assay: Induction of apoptosis in human EA.hy 926 cells assessed as viable cells at 1 uM incubated for 72 hrs by annexin-V/PI staining based flow cytometry analysis (reference value: 93.8%); type: functional; conditions: read-out: Activity
[18] = test system: EA.hy 926; assay: Induction of apoptosis in human EA.hy 926 cells assessed as early apoptotic cells at 40 uM incubated for 72 hrs by annexin-V/PI staining based flow cytometry analysis (reference value: 0.71%); type: functional
[19] = target: T2, von Hippel-Lindau disease tumor suppressor/Vascular endothelial growth factor receptor 2; assay: Protac activity at VHL E3 ubiquitin ligase/VEGFR-2 in human EA.hy 926 cells assessed as degradation of VEGFR-2 protein preincubated with carfilzomib; type: cell-based
Target sequence in this assay (P35968 20-1356 limits assumed): as the sequence (P35968 20-1356 limits assumed) above
Target sequence in this assay (P40337 whole entry partner): as the sequence (P40337 whole entry, looked up) above

[20] = test system: EA.hy 926; assay: Induction of apoptosis in human EA.hy 926 cells assessed as necrotic cells at 20 uM incubated for 72 hrs by annexin-V/PI staining based flow cytometry analysis (reference value: 2.34%); type: functional
[21] = test system: EA.hy 926; assay: Induction of apoptosis in human EA.hy 926 cells assessed as late apoptotic cells at 10 uM incubated for 72 hrs by annexin-V/PI staining based flow cytometry analysis (reference value: 3.07%); type: functional
[22] = test system: EA.hy 926; assay: Induction of apoptosis in human EA.hy 926 cells assessed as necrotic cells at 0.1 uM incubated for 72 hrs by annexin-V/PI staining based flow cytometry analysis (reference value: 2.34%); type: functional
[23] = test system: EA.hy 926; assay: Induction of apoptosis in human EA.hy 926 cells assessed as early apoptotic cells at 20 uM incubated for 72 hrs by annexin-V/PI staining based flow cytometry analysis (reference value: 0.71%); type: functional
[24] = test system: EA.hy 926; assay: Induction of apoptosis in human EA.hy 926 cells assessed as viable cells at 0.1 uM incubated for 72 hrs by annexin-V/PI staining based flow cytometry analysis (reference value: 93.8%); type: functional; conditions: read-out: Activity
[25] = test system: EA.hy 926; assay: Induction of apoptosis in human EA.hy 926 cells assessed as late apoptotic cells at 20 uM incubated for 72 hrs by annexin-V/PI staining based flow cytometry analysis (reference value: 3.07%); type: functional
[26] = test system: EA.hy 926; assay: Induction of apoptosis in human EA.hy 926 cells assessed as late apoptotic cells at 1 uM incubated for 72 hrs by annexin-V/PI staining based flow cytometry analysis (reference value: 3.07%); type: functional
[27] = test system: EA.hy 926; assay: Induction of apoptosis in human EA.hy 926 cells assessed as early apoptotic cells at 1 uM incubated for 72 hrs by annexin-V/PI staining based flow cytometry analysis (reference value: 0.71%); type: functional
[28] = target: T1, von Hippel-Lindau disease tumor suppressor/Serine/threonine-protein kinase B-raf (Homo sapiens); assay: Protac activity at E3 ubiquitin ligase/BRAF in human EA.hy 926 cells assessed as degradation of BRAF protein at 30 uM preincubated with VH032 for 2 hrs followed by compound addition and measured after 48 hrs by Western blot analysis; type: cell-based
[29] = target: T1, von Hippel-Lindau disease tumor suppressor/Serine/threonine-protein kinase B-raf (Homo sapiens); assay: Protac activity at E3 ubiquitin ligase/BRAF in human EA.hy 926 cells assessed as degradation of BRAF protein at 30 uM preincubated with S5 for 2 hrs followed by compound addition and measured after 48 hrs by Western blot analysis; type: cell-based
[30] = test system: EA.hy 926; assay: Induction of apoptosis in human EA.hy 926 cells assessed as late apoptotic cells at 0.1 uM incubated for 72 hrs by annexin-V/PI staining based flow cytometry analysis (reference value: 3.07%); type: functional
[31] = test system: EA.hy 926; assay: Induction of apoptosis in human EA.hy 926 cells assessed as viable cells at 20 uM incubated for 72 hrs by annexin-V/PI staining based flow cytometry analysis (reference value: 93.8%); type: functional; conditions: read-out: Activity
[32] = test system: EA.hy 926; assay: Induction of apoptosis in human EA.hy 926 cells assessed as necrotic cells at 1 uM incubated for 72 hrs by annexin-V/PI staining based flow cytometry analysis (reference value: 2.34%); type: functional
[33] = test system: EA.hy 926; assay: Induction of apoptosis in human EA.hy 926 cells assessed as early apoptotic cells at 10 uM incubated for 72 hrs by annexin-V/PI staining based flow cytometry analysis (reference value: 0.71%); type: functional
[34] = test system: EA.hy 926; assay: Induction of apoptosis in human EA.hy 926 cells assessed as necrotic cells at 10 uM incubated for 72 hrs by annexin-V/PI staining based flow cytometry analysis (reference value: 2.34%); type: functional
[35] = test system: EA.hy 926; assay: Induction of apoptosis in human EA.hy 926 cells assessed as necrotic cells at 40 uM incubated for 72 hrs by annexin-V/PI staining based flow cytometry analysis (reference value: 2.34%); type: functional
[36] = test system: EA.hy 926; assay: Induction of apoptosis in human EA.hy 926 cells assessed as early apoptotic cells at 0.1 uM incubated for 72 hrs by annexin-V/PI staining based flow cytometry analysis (reference value: 0.71%); type: functional
[37] = target: T2, von Hippel-Lindau disease tumor suppressor/Vascular endothelial growth factor receptor 2; assay: Protac activity at VHL E3 ubiquitin ligase/VEGFR-2 in human EA.hy 926 cells assessed as degradation of VEGFR-2 protein at […]; type: cell-based
Target sequence in this assay (P35968 20-1356 limits assumed): as the sequence (P35968 20-1356 limits assumed) above
Target sequence in this assay (P40337 whole entry partner): as the sequence (P40337 whole entry, looked up) above

[38] = test system: EA.hy 926; assay: Cytotoxicity against human EA.hy 926 cells; type: toxicity, cell-based
[39] = target: T1, von Hippel-Lindau disease tumor suppressor/Serine/threonine-protein kinase B-raf (Homo sapiens); assay: Protac activity at E3 ubiquitin ligase/BRAF in human MDA-MB-231 cells assessed as degradation of BRAF protein; type: cell-based
[40] = target: T1, von Hippel-Lindau disease tumor suppressor/Serine/threonine-protein kinase B-raf (Homo sapiens); assay: Protac activity at E3 ubiquitin ligase/BRAF in human HepG2 cells assessed as degradation of BRAF protein; type: cell-based
[41] = target: T1, von Hippel-Lindau disease tumor suppressor/Serine/threonine-protein kinase B-raf (Homo sapiens); assay: Protac activity at E3 ubiquitin ligase/BRAF in human U87 cells assessed as degradation of BRAF protein; type: cell-based

Activity [1]: Active
IC50 [3]: > 100 µM
Activity [4]: Active
IC50 [5]: > 100 µM
IC50 [7]: 0.00707 µM
Activity [8]: Tde
Activity [9]: Active
Activity [10]: Active
Structure (SMILES): Cc1ncsc1-c1ccc(CNC(=O)[C@@H]2C[C@@H](O)CN2C(=O)[C@@H](NC(=O)CCCCCCCCCCC(=O)n2nc(N)c3c(-c4cccc(NC(=O)Nc5cccc(Cl)c5)c4)cccc32)C(C)(C)C)cc1
IC50 [2]: 21 µM
Activity [6]: inactive
Activity [11]: Non-Toxic
Activity [12]: Active

IC50 [3]: 15.8 µM
IC50 [5]: > 100 µM
Structure (SMILES): Nc1n[nH]c2cccc(-c3cccc(NC(=O)Nc4cccc(Cl)c4)c3)c12
IC50 [2]: 7.33 µM
Activity [11]: Non-Toxic

Activity [19]: inactive
IC50 [3]: > 100 µM
Activity [4]: Active
IC50 [5]: > 100 µM
IC50 [7]: 0.0422 µM
Activity [28]: inactive
Activity [29]: inactive
Activity [9]: Active
Structure (SMILES): Cc1ncsc1-c1ccc(CNC(=O)[C@@H]2C[C@@H](O)CN2C(=O)[C@@H](NC(=O)CCCCCC(=O)n2nc(N)c3c(-c4cccc(NC(=O)Nc5cccc(Cl)c5)c4)cccc32)C(C)(C)C)cc1
Activity [13]: Active
viability at 10 µM [14]: 91.4%
viability at 40 µM [15]: 92.2%
Activity [16]: 2.62%
viability at 1 µM [17]: 93.1%
Activity [18]: 1.44%
Activity [20]: 7.08%
IC50 [2]: 20 µM
Activity [21]: 2.62%
Activity [22]: 6.32%
Activity [23]: 0.86%
viability at 0.1 µM [24]: 91.3%
Activity [25]: 3.93%
Activity [26]: 3.2%
Activity [27]: 0.96%
Activity [30]: 1.77%
viability at 20 µM [31]: 88.1%
Activity [32]: 2.75%
Activity [33]: 0.77%
Activity [34]: 5.23%
Activity [35]: 3.7%
Activity [36]: 0.57%
Activity [11]: Non-Toxic
Activity [12]: Active

Activity [37]: Active
Structure (SMILES): CC(C)C[C@H](NC(=O)[C@H](CCc1ccccc1)NC(=O)CN1CCOCC1)C(=O)N[C@@H](Cc1ccccc1)C(=O)N[C@@H](CC(C)C)C(=O)[C@@]1(C)CO1 [CARFILZOMIB]
Activity [38]: Toxic

Activity [39]: inactive
IC50 [3]: > 100 µM
IC50 [5]: > 100 µM
IC50 [7]: 0.00212 µM
Activity [9]: Dose-Dependent Effect
Activity [40]: Active
Activity [41]: Active
Structure (SMILES): Cc1ncsc1-c1ccc(CNC(=O)[C@@H]2C[C@@H](O)CN2C(=O)[C@@H](NC(=O)CCCCCCCCCCCCCCC(=O)n2nc(N)c3c(-c4cccc(NC(=O)Nc5cccc(Cl)c5)c4)cccc32)C(C)(C)C)cc1
IC50 [2]: 28.5 µM
Activity [11]: Non-Toxic
